Assay results published in ChEMBL document CHEMBL2346657, “Synthesis of novel 2-amino-4-(5'-substituted 2'-phenyl-1H-indol-3'-yl)-6-aryl-4H-pyran-3-carbonitrile derivatives as antimicrobial and antioxidant agents” (2013).
The source made the active and inactive calls. How the calls were made is not given here.

How the values were obtained:
Format in all cases: functional
Staphylococcus aureus [1] = test: Antimicrobial activity against Staphylococcus aureus ATCC 29513 at 1000 ug/ml after 24 hrs by cup plate method; details: ATCC 29513, 24 h, read-out: IZ
Staphylococcus aureus [2] = test: Antimicrobial activity against Staphylococcus aureus ATCC 29513 at 750 ug/ml after 24 hrs by cup plate method; details: ATCC 29513, 24 h, read-out: IZ
Klebsiella pneumoniae [3] = test: Antimicrobial activity against Klebsiella pneumoniae NCTC 13368 at 750 ug/ml after 24 hrs by cup plate method; details: NCTC 13368, 24 h, read-out: IZ
Aspergillus oryzae [4] = test: Antimicrobial activity against Aspergillus oryzae MTCC 3567 at 500 ug/ml after 72 hrs by cup plate method; details: MTCC 3567, 72 h, read-out: IZ
Escherichia coli [5] = test: Antimicrobial activity against Escherichia coli MTCC 723 at 500 ug/ml after 24 hrs by cup plate method; details: MTCC 723, 24 h, read-out: IZ
Escherichia coli [6] = test: Antimicrobial activity against Escherichia coli MTCC 723 at 1000 ug/ml after 24 hrs by cup plate method; details: MTCC 723, 24 h, read-out: IZ
Aspergillus terreus [7] = test: Antimicrobial activity against Aspergillus terreus MTCC 1782 at 1000 ug/ml after 72 hrs by cup plate method; details: MTCC 1782, 72 h, read-out: IZ
Escherichia coli [8] = test: Antimicrobial activity against Escherichia coli MTCC 723 at 750 ug/ml after 24 hrs by cup plate method; details: MTCC 723, 24 h, read-out: IZ
Aspergillus flavus [9] = test: Antimicrobial activity against Aspergillus flavus MTCC 1973 at 500 ug/ml after 72 hrs by cup plate method; details: MTCC 1973, 72 h, read-out: IZ
Pseudomonas aeruginosa [10] = test: Antimicrobial activity against Pseudomonas aeruginosa MTCC 1688 at 1000 ug/ml after 24 hrs by cup plate method; details: MTCC 1688, 24 h, read-out: IZ
Aspergillus flavus [11] = test: Antimicrobial activity against Aspergillus flavus MTCC 1973 at 750 ug/ml after 72 hrs by cup plate method; details: MTCC 1973, 72 h, read-out: IZ
Aspergillus niger [12] = test: Antimicrobial activity against Aspergillus niger MTCC 281 at 1000 ug/ml after 72 hrs by cup plate method; details: MTCC 281, 72 h, read-out: IZ
Aspergillus oryzae [13] = test: Antimicrobial activity against Aspergillus oryzae MTCC 3567 at 750 ug/ml after 72 hrs by cup plate method; details: MTCC 3567, 72 h, read-out: IZ
Klebsiella pneumoniae [14] = test: Antimicrobial activity against Klebsiella pneumoniae NCTC 13368 at 1000 ug/ml after 24 hrs by cup plate method; details: NCTC 13368, 24 h, read-out: IZ
Aspergillus niger [15] = test: Antimicrobial activity against Aspergillus niger MTCC 281 at 500 ug/ml after 72 hrs by cup plate method; details: MTCC 281, 72 h, read-out: IZ
Aspergillus oryzae [16] = test: Antimicrobial activity against Aspergillus oryzae MTCC 3567 at 1000 ug/ml after 72 hrs by cup plate method; details: MTCC 3567, 72 h, read-out: IZ
Staphylococcus aureus [17] = test: Antimicrobial activity against Staphylococcus aureus ATCC 29513 at 500 ug/ml after 24 hrs by cup plate method; details: ATCC 29513, 24 h, read-out: IZ
[18] = Antioxidant activity assessed as metal chelating activity by measuring inhibition of ferrozine-Fe2+ complex formation at 25 to 100 ug/ml
Pseudomonas aeruginosa [19] = test: Antimicrobial activity against Pseudomonas aeruginosa MTCC 1688 at 750 ug/ml after 24 hrs by cup plate method; details: MTCC 1688, 24 h, read-out: IZ
Aspergillus terreus [20] = test: Antimicrobial activity against Aspergillus terreus MTCC 1782 at 750 ug/ml after 72 hrs by cup plate method; details: MTCC 1782, 72 h, read-out: IZ
Aspergillus niger [21] = test: Antimicrobial activity against Aspergillus niger MTCC 281 at 750 ug/ml after 72 hrs by cup plate method; details: MTCC 281, 72 h, read-out: IZ
Klebsiella pneumoniae [22] = test: Antimicrobial activity against Klebsiella pneumoniae NCTC 13368 at 500 ug/ml after 24 hrs by cup plate method; details: NCTC 13368, 24 h, read-out: IZ
Aspergillus terreus [23] = test: Antimicrobial activity against Aspergillus terreus MTCC 1782 at 500 ug/ml after 72 hrs by cup plate method; details: MTCC 1782, 72 h, read-out: IZ
Pseudomonas aeruginosa [24] = test: Antimicrobial activity against Pseudomonas aeruginosa MTCC 1688 at 500 ug/ml after 24 hrs by cup plate method; details: MTCC 1688, 24 h, read-out: IZ

N#Cc1c(N)c2c(N)c3c(nc2oc1=O)OC(c1ccccc1)=CC3c1c(-c2ccccc2)[nH]c2ccc(Cl)cc12 (centres undefined)
zone of inhibition at 1000 µg/mL (Staphylococcus aureus [1]): 14 mm
zone of inhibition at 750 µg/mL (Staphylococcus aureus [2]): 13 mm
zone of inhibition at 750 µg/mL (Klebsiella pneumoniae [3]): 5 mm
zone of inhibition at 500 µg/mL (Aspergillus oryzae [4]): 12 mm
zone of inhibition at 500 µg/mL (Escherichia coli [5]): 10 mm
zone of inhibition at 1000 µg/mL (Escherichia coli [6]): 8 mm
zone of inhibition at 1000 µg/mL (Aspergillus terreus [7]): 3 mm
zone of inhibition at 750 µg/mL (Escherichia coli [8]): 10 mm
zone of inhibition at 500 µg/mL (Aspergillus flavus [9]): 5 mm
zone of inhibition at 1000 µg/mL (Pseudomonas aeruginosa [10]): 5 mm
zone of inhibition at 750 µg/mL (Aspergillus flavus [11]): 3 mm
zone of inhibition at 1000 µg/mL (Aspergillus niger [12]): 10 mm
zone of inhibition at 750 µg/mL (Aspergillus oryzae [13]): 12 mm
zone of inhibition at 1000 µg/mL (Klebsiella pneumoniae [14]): 5 mm
zone of inhibition at 500 µg/mL (Aspergillus niger [15]): 9 mm
zone of inhibition at 1000 µg/mL (Aspergillus oryzae [16]): 13 mm
zone of inhibition at 500 µg/mL (Staphylococcus aureus [17]): 13 mm
Activity [18]: Active
zone of inhibition at 750 µg/mL (Pseudomonas aeruginosa [19]): 8 mm
zone of inhibition at 750 µg/mL (Aspergillus terreus [20]): 3 mm
zone of inhibition at 750 µg/mL (Aspergillus niger [21]): 9 mm
zone of inhibition at 500 µg/mL (Klebsiella pneumoniae [22]): 5 mm
zone of inhibition at 500 µg/mL (Aspergillus terreus [23]): 3 mm
zone of inhibition at 500 µg/mL (Pseudomonas aeruginosa [24]): 9 mm

CN[C@@H]1[C@H](O[C@H]2[C@H](O[C@H]3[C@H](O)[C@@H](O)[C@H](N=C(N)N)[C@@H](O)[C@@H]3N=C(N)N)O[C@@H](C)[C@]2(O)C=O)O[C@@H](CO)[C@H](O)[C@H]1O [STREPTOMYCIN]
zone of inhibition at 1000 µg/mL (Staphylococcus aureus [1]): 15 mm
zone of inhibition at 750 µg/mL (Staphylococcus aureus [2]): 15 mm
zone of inhibition at 750 µg/mL (Klebsiella pneumoniae [3]): 14 mm
zone of inhibition at 500 µg/mL (Escherichia coli [5]): 14 mm
zone of inhibition at 1000 µg/mL (Escherichia coli [6]): 15 mm
zone of inhibition at 750 µg/mL (Escherichia coli [8]): 14 mm
zone of inhibition at 1000 µg/mL (Pseudomonas aeruginosa [10]): 14 mm
zone of inhibition at 1000 µg/mL (Klebsiella pneumoniae [14]): 14 mm
zone of inhibition at 500 µg/mL (Staphylococcus aureus [17]): 15 mm
zone of inhibition at 750 µg/mL (Pseudomonas aeruginosa [19]): 13 mm
zone of inhibition at 500 µg/mL (Klebsiella pneumoniae [22]): 14 mm
zone of inhibition at 500 µg/mL (Pseudomonas aeruginosa [24]): 13 mm

Cc1ccc2[nH]c(-c3ccccc3)c(C3C=C(c4ccccc4)Oc4nc5oc(=O)c(C#N)c(N)c5c(N)c43)c2c1 (centres undefined)
zone of inhibition at 1000 µg/mL (Staphylococcus aureus [1]): 4 mm
zone of inhibition at 750 µg/mL (Staphylococcus aureus [2]): 8 mm
zone of inhibition at 750 µg/mL (Klebsiella pneumoniae [3]): 4 mm
zone of inhibition at 500 µg/mL (Aspergillus oryzae [4]): 11 mm
zone of inhibition at 500 µg/mL (Escherichia coli [5]): 10 mm
zone of inhibition at 1000 µg/mL (Escherichia coli [6]): 5 mm
zone of inhibition at 1000 µg/mL (Aspergillus terreus [7]): 4 mm
zone of inhibition at 750 µg/mL (Escherichia coli [8]): 9 mm
zone of inhibition at 500 µg/mL (Aspergillus flavus [9]): 5 mm
zone of inhibition at 1000 µg/mL (Pseudomonas aeruginosa [10]): 0 mm
zone of inhibition at 750 µg/mL (Aspergillus flavus [11]): 0 mm
zone of inhibition at 1000 µg/mL (Aspergillus niger [12]): 10 mm
zone of inhibition at 750 µg/mL (Aspergillus oryzae [13]): 8 mm
zone of inhibition at 1000 µg/mL (Klebsiella pneumoniae [14]): 4 mm
zone of inhibition at 500 µg/mL (Aspergillus niger [15]): 10 mm
zone of inhibition at 1000 µg/mL (Aspergillus oryzae [16]): 8 mm
zone of inhibition at 500 µg/mL (Staphylococcus aureus [17]): 9 mm
Activity [18]: Active
zone of inhibition at 750 µg/mL (Pseudomonas aeruginosa [19]): 3 mm
zone of inhibition at 750 µg/mL (Aspergillus terreus [20]): 4 mm
zone of inhibition at 750 µg/mL (Aspergillus niger [21]): 10 mm
zone of inhibition at 500 µg/mL (Klebsiella pneumoniae [22]): 4 mm
zone of inhibition at 500 µg/mL (Aspergillus terreus [23]): 9 mm
zone of inhibition at 500 µg/mL (Pseudomonas aeruginosa [24]): 3 mm

N#Cc1c(N)c2c(N)c3c(nc2oc1=O)OC(c1ccccc1)=CC3c1c(-c2ccccc2)[nH]c2ccccc12 (centres undefined)
zone of inhibition at 1000 µg/mL (Staphylococcus aureus [1]): 9 mm
zone of inhibition at 750 µg/mL (Staphylococcus aureus [2]): 10 mm
zone of inhibition at 750 µg/mL (Klebsiella pneumoniae [3]): 11 mm
zone of inhibition at 500 µg/mL (Aspergillus oryzae [4]): 11 mm
zone of inhibition at 500 µg/mL (Escherichia coli [5]): 8 mm
zone of inhibition at 1000 µg/mL (Escherichia coli [6]): 10 mm
zone of inhibition at 1000 µg/mL (Aspergillus terreus [7]): 5 mm
zone of inhibition at 750 µg/mL (Escherichia coli [8]): 8 mm
zone of inhibition at 500 µg/mL (Aspergillus flavus [9]): 5 mm
zone of inhibition at 1000 µg/mL (Pseudomonas aeruginosa [10]): 3 mm
zone of inhibition at 750 µg/mL (Aspergillus flavus [11]): 3 mm
zone of inhibition at 1000 µg/mL (Aspergillus niger [12]): 10 mm
zone of inhibition at 750 µg/mL (Aspergillus oryzae [13]): 11 mm
zone of inhibition at 1000 µg/mL (Klebsiella pneumoniae [14]): 10 mm
zone of inhibition at 500 µg/mL (Aspergillus niger [15]): 5 mm
zone of inhibition at 1000 µg/mL (Aspergillus oryzae [16]): 11 mm
zone of inhibition at 500 µg/mL (Staphylococcus aureus [17]): 10 mm
Activity [18]: Active
zone of inhibition at 750 µg/mL (Pseudomonas aeruginosa [19]): 7 mm
zone of inhibition at 750 µg/mL (Aspergillus terreus [20]): 5 mm
zone of inhibition at 750 µg/mL (Aspergillus niger [21]): 3 mm
zone of inhibition at 500 µg/mL (Klebsiella pneumoniae [22]): 11 mm
zone of inhibition at 500 µg/mL (Aspergillus terreus [23]): 5 mm
zone of inhibition at 500 µg/mL (Pseudomonas aeruginosa [24]): 5 mm
